Source: the NIST ThermoML archive (doi:10.1021/acs.jced.6b00178)

Experiment: xn = mol fraction of the nth substance listed
Conditions: 100 kPa, Liquid; for viscosity: Concentric cylinders viscometry; for mass density: Vibrating tube method

CCCCn1cc[n+](C)c1.F[P-](F)(F)(F)(F)F [1-butyl-3-methylimidazolium hexafluorophosphate] + CCCC[n+]1ccn(C)c1.O=S(=O)([N-]S(=O)(=O)C(F)(F)F)C(F)(F)F
Conditions	mass density, x2 = 0 [kg/m3]	mass density, x2 = 0.25 [kg/m3]	mass density, x2 = 0.5 [kg/m3]	mass density, x2 = 0.748 [kg/m3]	viscosity, x2 = 0 [mPa·s]	viscosity, x2 = 0.25 [mPa·s]	viscosity, x2 = 0.5 [mPa·s]	viscosity, x2 = 0.748 [mPa·s]
283.15 K	1379.9	1402.5	1421.1	1437.4	794.33	360.25	221.31	148.25
288.15 K	1376.5	1398.3	1417.2	1433.1	557.27	264.71	166.04	112.57
293.15 K	1372	1393.8	1412.6	1428.4	393.86	196.39	126.16	87.23
298.15 K	1367.6	1389.4	1408	1423.7	285.02	148.96	97.74	68.88
303.15 K	1363.4	1385	1403.5	1419	210.93	115.08	77.09	55.3
308.15 K	1359.2	1380.7	1399	1414.3	159.46	90.44	61.82	45.08
313.15 K	1355.1	1376.4	1394.5	1409.7	122.78	72.18	50.31	37.25
318.15 K	1351	1372.1	1390	1405.1	96.28	58.45	41.52	31.17
323.15 K	1347	1367.9	1385.6	1400.5	76.72	47.96	34.68	26.38
328.15 K	1342.9	1363.6	1381.2	1395.9	62.04	39.84	29.3	22.56
333.15 K	1338.9	1359.4	1376.7	1391.3	50.85	33.47	25	19.47
338.15 K	1334.9	1355.2	1372.3	1386.8	42.2	28.39	21.53	16.96
343.15 K	1330.9	1351	1368	1382.3	35.43	24.3	18.7	14.88
348.15 K	1326.9	1346.9	1363.6	1377.9	30.04	20.99	16.38	13.15
353.15 K	1323	1342.7	1359.3	1373.4	25.72	18.29	14.44	11.7
358.15 K	1319	1338.6	1355.1	1369	22.22	16.04	12.82	10.47
363.15 K	1315.2	1334.6	1350.8	1364.6	19.36	14.17	11.46	9.428
